{"source": "paper PMC8584349", "about": "(International Journal of Molecular Sciences, 2021)", "key": {"authentic HCoV-229E [1]": {"test_system": "authentic HCoV-229E", "assay": "microbe, parasite or virus in culture", "format": "cell-based", "settings": "Human coronavirus 229E; Huh-7 cell line; cells pretreated with 25-HC 8–12 h; CCK-8; read-out: IC50, inhibition of authentic HCoV-229E infection"}, "SARS-CoV PsV [2]": {"test_system": "SARS-CoV PsV", "assay": "microbe, parasite or virus in culture", "format": "cell-based", "settings": "Severe acute respiratory syndrome coronavirus, read-out: IC50, inhibition of SARS-CoV PsV infection"}, "SARS-CoV-2 PsV [3]": {"test_system": "SARS-CoV-2 PsV"}, "SARS-CoV-2 PsV [4]": {"test_system": "SARS-CoV-2 PsV", "assay": "microbe, parasite or virus in culture"}, "SARS-CoV-2 PsV [5]": {"test_system": "SARS-CoV-2 PsV", "assay": "microbe, parasite or virus in culture", "format": "cell-based", "settings": "Severe acute respiratory syndrome coronavirus 2; target cells pretreated with 25-HC 8–12 h; luciferase; read-out: IC50, inhibition of SARS-CoV-2 PsV infection"}, "MERS-CoV PsV [6]": {"test_system": "MERS-CoV PsV", "assay": "microbe, parasite or virus in culture", "settings": "Middle East respiratory syndrome-related coronavirus"}, "MERS-CoV PsV [7]": {"test_system": "MERS-CoV PsV", "settings": "in 25-HC/EK1 combination versus alone"}, "authentic HCoV-OC43": {"test_system": "authentic HCoV-OC43", "assay": "Authentic virus inhibition assay, HCoV-OC43 in RD cells", "format": "cell-based", "settings": "RD cell line, CCK8, triplicate, repeated twice, read-out: IC50, inhibition of HCoV-OC43 replication", "procedure": "(§1) Inhibition of authentic coronaviruses was performed as previously reported. Briefly, authentic HCoV-OC43 or HCoV-229E was coincubated with a test peptide at different concentrations at 37 °C for 30 min. Then, these authentic virus–peptide mixtures were added into target cells in a 96-well plate (Huh-7 cell line for HCoV-229E, RD cell line for HCoV-OC43). CCK8 solution was used to assess virus-induced cytopathy when the cytopathic effect (CPE) of DMSO-treated target cells was clear and the IC50 value was calculated."}, "SARS-CoV-2 VOC PsVs": {"test_system": "SARS-CoV-2 VOC PsVs", "settings": "12 h"}, "authentic HCoV-229E [8]": {"test_system": "authentic HCoV-229E", "assay": "Authentic virus inhibition assay, HCoV-229E in Huh-7 cells", "format": "cell-based", "settings": "Huh-7 cell line, CCK8, triplicate, repeated twice, read-out: IC50, inhibition of HCoV-229E replication", "procedure": "as §1"}, "SARS-CoV PsV [9]": {"test_system": "SARS-CoV PsV", "settings": "12 h"}}, "note": "Where two headings read alike, the source gives them in different places.", "data": [{"smiles": "C[C@H](CCCC(C)(C)O)[C@H]1CC[C@H]2[C@@H]3CC=C4C[C@@H](O)CC[C@]4(C)[C@H]3CC[C@]12C", "note": "[25-HC, 25-Hydroxycholesterol]", "values": [{"measurement": "IC50", "setting": "authentic HCoV-229E [1]", "value": 5350, "unit": "nM"}, {"measurement": "IC50", "setting": "SARS-CoV PsV [2]", "value": 2790, "unit": "nM"}, {"measurement": "dose reduction", "setting": "SARS-CoV-2 PsV [3]; SARS-CoV-2 PsV, in 25-HC/EK1 combination versus alone", "value": 3, "unit": "fold"}, {"measurement": "IC50", "setting": "SARS-CoV-2 PsV [4]; Severe acute respiratory syndrome coronavirus 2, read-out: IC50, tested alone", "value": 9300, "unit": "nM"}, {"measurement": "IC50", "setting": "SARS-CoV-2 PsV [4]; Severe acute respiratory syndrome coronavirus 2, read-out: IC50, tested in EK1/25-HC combination", "value": 3700, "unit": "nM"}, {"measurement": "IC50", "setting": "SARS-CoV-2 PsV [5]", "value": 4110, "unit": "nM"}, {"measurement": "IC50", "setting": "MERS-CoV PsV [6]; read-out: IC50, tested alone", "value": 6800, "unit": "nM"}, {"measurement": "IC50", "setting": "MERS-CoV PsV [6]; read-out: IC50, tested in EK1/25-HC combination", "value": 1600, "unit": "nM"}, {"measurement": "dose reduction", "setting": "MERS-CoV PsV [7]", "value": 4, "unit": "fold"}]}, {"smiles": "CC[C@H](C)[C@H](NC(=O)[C@H](C)NC(=O)[C@H](CCC(=O)O)NC(=O)[C@H](CCC(=O)O)NC(=O)[C@H](CC(C)C)NC(=O)[C@H](CCCCN)NC(=O)[C@H](CCCCN)NC(=O)[C@H](CCSC)NC(=O)[C@H](CCC(=O)O)NC(=O)[C@H](Cc1ccc(O)cc1)NC(=O)[C@H](CCC(=O)O)NC(=O)[C@H](CC(C)C)NC(=O)[C@H](CC(=O)O)NC(=O)[C@H](CC(C)C)NC(=O)[C@H](Cc1ccccc1)NC(=O)[C@@H](NC(=O)[C@@H](NC(=O)[C@H](CC(N)=O)NC(=O)[C@@H](NC(=O)[C@H](CCC(N)=O)NC(=O)[C@H](CC(=O)O)NC(=O)[C@H](CC(C)C)NC(=O)[C@@H](N)CO)[C@@H](C)CC)C(C)C)[C@@H](C)O)C(=O)N[C@@H](CCCCN)C(=O)N[C@@H](CCCCN)C(=O)N[C@@H](CC(C)C)C(=O)N[C@@H](CCC(=O)O)C(=O)N[C@@H](CCC(=O)O)C(=O)N[C@@H](CO)C(=O)N[C@@H](Cc1ccc(O)cc1)C(=O)N[C@H](C(=O)N[C@@H](CC(=O)O)C(=O)N[C@@H](CC(C)C)C(=O)N[C@@H](CCCCN)C(=O)N[C@@H](CCC(=O)O)C(=O)N[C@@H](CC(C)C)C(=O)O)[C@@H](C)CC", "note": "[EK1]", "values": [{"measurement": "IC50", "setting": "SARS-CoV-2 PsV [3]; PsV, 12 h", "value": 840, "unit": "nM"}, {"measurement": "IC50", "setting": "authentic HCoV-OC43", "value": 1510, "unit": "nM"}, {"measurement": "IC50", "setting": "SARS-CoV-2 VOC PsVs", "value": "480 to 4610", "unit": "nM"}, {"measurement": "IC50", "setting": "authentic HCoV-229E [8]", "value": 2200, "unit": "nM"}, {"measurement": "IC50", "setting": "SARS-CoV PsV [9]", "value": 2800, "unit": "nM"}]}]}
